Measurements: patent US20030022813A1, “Treating pain by targeting hyperpolarization-activated, cyclic nucleotide-gated channels” (priority 2001, published 2003)
Entries after “also recorded” stand apart in the source; their conditions may differ.

Tests used:
human HCN1 = target: T1, human HCN1 (Homo sapiens, UniProt O60741); assay: Two-electrode voltage clamp of Xenopus oocytes injected with human HCN1 cRNA; format: cell-based; details: for block of HCN1 currents: Cs+ 3 mM in ND-96
T1 construct: expressed in transfected cells; host or cells: Xenopus laevis oocytes injected with cRNA transcribed from pGEM HE-human HCN1
T1 sequence (O60741 1-890): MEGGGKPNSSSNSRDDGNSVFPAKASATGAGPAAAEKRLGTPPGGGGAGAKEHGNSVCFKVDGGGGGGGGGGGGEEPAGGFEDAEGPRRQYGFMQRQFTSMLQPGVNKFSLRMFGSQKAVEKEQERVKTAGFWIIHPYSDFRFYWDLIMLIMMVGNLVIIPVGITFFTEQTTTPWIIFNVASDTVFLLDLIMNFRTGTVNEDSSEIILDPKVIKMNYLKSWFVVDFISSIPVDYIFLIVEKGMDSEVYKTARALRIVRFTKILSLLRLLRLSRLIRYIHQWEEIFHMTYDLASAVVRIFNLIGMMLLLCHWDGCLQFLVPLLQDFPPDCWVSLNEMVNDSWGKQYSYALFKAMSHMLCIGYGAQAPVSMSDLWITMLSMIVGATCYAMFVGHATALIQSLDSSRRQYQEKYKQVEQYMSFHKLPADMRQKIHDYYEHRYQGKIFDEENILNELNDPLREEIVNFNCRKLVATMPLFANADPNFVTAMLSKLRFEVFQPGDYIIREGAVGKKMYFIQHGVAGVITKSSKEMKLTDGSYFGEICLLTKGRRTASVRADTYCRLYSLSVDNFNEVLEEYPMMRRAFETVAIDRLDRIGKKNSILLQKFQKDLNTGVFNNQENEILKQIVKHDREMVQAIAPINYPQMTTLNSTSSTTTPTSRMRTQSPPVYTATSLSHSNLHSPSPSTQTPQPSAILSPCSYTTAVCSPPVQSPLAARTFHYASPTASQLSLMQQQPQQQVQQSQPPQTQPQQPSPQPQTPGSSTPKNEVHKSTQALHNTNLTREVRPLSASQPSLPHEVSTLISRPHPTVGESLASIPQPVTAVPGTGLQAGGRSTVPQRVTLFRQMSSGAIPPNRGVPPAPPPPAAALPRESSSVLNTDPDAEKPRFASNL

human HCN3 = target: T2, human HCN3 (Homo sapiens, UniProt Q9P1Z3); assay: Whole cell patch clamp of HEK293 cells stably expressing human HCN3; format: cell-based
T2 construct: expressed in transfected cells; host or cells: HEK293 cells stably transfected with hHCN3-pCDNA3.1 Zeo
T2 sequence (Q9P1Z3 1-774): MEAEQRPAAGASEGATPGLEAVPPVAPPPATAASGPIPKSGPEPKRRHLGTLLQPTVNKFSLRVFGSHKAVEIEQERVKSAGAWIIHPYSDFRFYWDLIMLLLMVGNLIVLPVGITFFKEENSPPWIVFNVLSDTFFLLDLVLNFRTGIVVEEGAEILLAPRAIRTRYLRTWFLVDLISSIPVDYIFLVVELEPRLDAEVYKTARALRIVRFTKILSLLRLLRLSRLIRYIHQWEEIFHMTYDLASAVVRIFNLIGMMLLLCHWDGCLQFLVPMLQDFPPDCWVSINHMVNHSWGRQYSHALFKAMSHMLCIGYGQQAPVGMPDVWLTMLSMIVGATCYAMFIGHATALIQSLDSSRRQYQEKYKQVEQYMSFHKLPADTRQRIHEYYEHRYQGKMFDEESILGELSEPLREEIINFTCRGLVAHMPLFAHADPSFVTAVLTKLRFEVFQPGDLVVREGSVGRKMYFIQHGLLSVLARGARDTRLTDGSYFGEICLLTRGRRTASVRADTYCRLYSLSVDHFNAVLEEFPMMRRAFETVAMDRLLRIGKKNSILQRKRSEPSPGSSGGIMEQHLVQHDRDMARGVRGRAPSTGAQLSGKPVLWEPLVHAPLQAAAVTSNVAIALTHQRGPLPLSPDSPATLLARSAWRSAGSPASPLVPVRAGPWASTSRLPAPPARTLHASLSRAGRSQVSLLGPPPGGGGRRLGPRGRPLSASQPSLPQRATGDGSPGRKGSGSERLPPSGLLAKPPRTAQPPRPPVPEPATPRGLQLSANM

Ih in large DRG neurons = assay: Whole cell patch clamp of Ih in acutely dissociated large L5 DRG neurons of SNL and control rats; format: cell-based, rat
Ih = details: applied intracellularly at 5 or 10 mM; cited from earlier work
[1] = test system: spontaneous firing of injured primary afferents (Aβ and Aδ fibers); assay: In vitro single fiber recording of spontaneous (ectopic) discharges in excised dorsal root/DRG/spinal nerve preparations from SNL rats; parameters: species or system rat
SNL rats = assay: Tactile allodynia (von Frey 50% paw withdrawal threshold) in the SNL (Chung) neuropathic pain model; format: in vivo, rat; details: i.p.
Description: Preparation of SNL (spinal nerve ligation) model: All studies were conducted in keeping with the guidelines of the Institutional Animal Care Committees of the University of California, San Diego and RWJPRI. Male Harlan Sprague-Dawley rats, 100-150 g, were housed in cages with solid bottoms and sawdust bedding, with a 12/12 h reversed light cycle (lights on 2100-900), and allowed free access to food pellets and water. Animals were housed in groups of 2 after surgical interventions. A surgical neuropathy was created as follows, to create a model commonly referred to as the SNL, or spinal nerve ligation model, also commonly referred to as the Chung model. Under isoflurane/oxygen anesthesia, a dorsal midline incision was made from approximately L3-S2. Using a mixture of sharp and blunt dissection, the left L6/S1 posterior interarticular process was exposed and resected to permit adequate visualization of the L6 transverse process, which was gently removed. Careful teasing of the underlying fascia exposed the left L4 and L5 spinal nerves distal to their emergence from the intervertebral foramina. The nerves were gently separated, and the L5 and in some cases either the L4 (for in vitro electrophysiology recordings) or the L6 nerve firmly ligated with 6-0 silk suture material. The wound was then inspected for hemostasis and closed in two layers. Animals with thresholds greater than 4 g were considered unsuccessful preparations(Chaplan et al., (1994) Journal of Neuroscience Methods 53: 55-63).
Behavioral assessment: Behavioral signs of allodynia were documented as follows. Briefly, rats were transferred to a testing cage with a wire mesh bottom and allowed to acclimate for 10-15 minutes. […] Lifting of the paw was recorded as a positive response and the next lightest filament chosen for the next measurement. […]

normal rats = assay: 55° C. hot plate test (latency to paw lick), acute thermally induced pain; format: in vivo, rat; details: 10 mg/kg i.p.
Description: A cutoff of 20 seconds of thermal surface exposure was employed to prevent tissue damage. Drug administration: Normal rats were administered ZD7288, 10 mg/kg, or an equivalent volume of saline, i.p. at time 0. Behavioral assessments were performed at 45, 60 and 75 minutes after drug administration.

CFA-injected rats = assay: Tactile allodynia in the complete Freund's adjuvant (CFA) paw model of inflammatory pain; format: in vivo, rat
[2] = test system: rat mild thermal injury model; assay: Spontaneous pain behaviors in the rat mild thermal injury (first-degree burn) model; details: for suppression of spontaneous pain behaviors: 30 and 60 min; for adverse behavioral effects: morphine 3 mg/kg or ZD7288 10 mg/kg i.p.
[3] = test system: preclinical models of neuropathic pain; details: cited from earlier work
[4] = test system: native Ih in normal rat L4 dorsal root ganglion neurons; assay: Whole cell patch clamp of native Ih in dissociated L4 DRG neurons of uninjured rats (lidocaine); format: cell-based; details: bath-applied at neutral pH
Description: Lidocaine was tested for its effect on Ih expressed in dissociated L4 dorsal root ganglion neurons from uninjured rats to determine whether this well known Na channel blocker could have other mechanisms of action.
DRG were extirpated, dissociated and cultured 3-4 days on poly-D-lysine coated coverslips as described in Example 10. Ih was measured using the whole cell configuration of the patch clamp technique according to the methods described in Example 10 with the exception that the pipette solution was the solution used in Example 3. Neurons were challenged with a family of hyperpolarizing voltage pulses (−60 mV to −150 mV in increments of 10 mV) from a holding potential of −50 mV. Ih was determined at the end of 600 msec duration test pulses. Lidocaine was bath-applied at neutral pH and the percent inhibition of control Ih was determined after lidocaine achieved steady state block. Plotted is the steady state current observed at −134 mV as a percent of control after incubation of lidocaine at the indicated concentrations. […] Lidocaine block was reversible. Data were obtained from 3 cells having control Ih densities of −1.5, −2.0 and −2.2 pA/pF.

[5] = test system: ectopic firing in injured peripheral nerves; details: systemically administered; cited from earlier work

[Cl-].[Cs+] [Cs^+, CsCl]
effect on endogenous inward currents of oocytes (human HCN1; Cs+ 3 mM): no effect | block of HCN1 currents (human HCN1; Ih evoked by stepping to −80 mV, n=3): 94% | block of HCN1 currents (human HCN1; Ih evoked by stepping to −100 mV, n=3): 92% | block of HCN1 currents (human HCN1; Ih evoked by stepping to −120 mV, n=3): 90% | block of low threshold inward currents in HCN1-injected oocytes, reversibility (human HCN1; Cs+ 3 mM, n=3): reversibly blocked | block of hyperpolarization-induced inward currents (Ih) (human HCN3; 3 mM CsCl): completely blocked | reversibility of effect on HCN3 currents (human HCN3; Cs+ 3 mM): rapidly reversible | block of Ih in large DRG neurons (Ih in large DRG neurons; extracellular Cs+ 3 mM): efficacious block

CC[N+](CC)(CC)CC(=O)Nc1c(C)cccc1C [QX-314]
block of Ih (Ih): blocks Ih

CCN(c1ccccc1)c1cc(=NC)n(C)c(C)n1.Cl [ZD7288]
cells with no detectable Ih after previous bath exposure and wash (human HCN3; ZD7288 50 μM, subsequently washed, previously 6 of 6 cells expressed Ih): 3 of 3 | block of hyperpolarization-induced inward currents (Ih) (human HCN3; ZD7288 50 μM, n=3): 98+/−2% | reversibility of effect on HCN3 currents (human HCN3; ZD7288 50 μM, washout period of at least 15 min): did not reverse | effect on spontaneous firing of Aδ fiber ([1]; 100 micromolar): attenuation of firing | time to complete suppression of ectopic firing, typical Aβ fiber ([1]; 100 micromolar): 3 to 4 min | conduction blockade of evoked action potentials ([1]; after application of ZD7288): no conduction blockade | suppression of spontaneous discharges of Aβ fibers ([1]; bath application 100 μM for 5 min): complete suppression; also recorded: completely suppressed | efficacy of suppression of allodynic responses (% MPE) (SNL rats): 75.7+/−15.4% | suppression of tactile allodynia (SNL rats; 1, 3, 10 mg/kg): suppressed allodynic responses in a dose-dependent manner; also recorded: blocked in a dose dependent manner; also recorded: suppressed the tactile allodynia | behavioral adverse effects / motor function (SNL rats; up to 10 mg/kg): No untoward behavioral effects; also recorded: normal motor function; also recorded: without overt adverse effects on behavior | effect on acute thermally-evoked pain (normal rats): minimal effect | difference from saline in hot plate latency (normal rats; 45 or 60 min): No statistically significant difference | difference from saline in hot plate latency (normal rats; 75 min, statistically significant, minor): approximately 15% | suppression of CFA-induced tactile allodynia (CFA-injected rats; ZD7288 10 mg/kg i.p., 10 mg/kg): suppressed allodynia; also recorded: markedly suppressed | block of Ih in large DRG neurons (Ih in large DRG neurons; ZD7288 50 μM): efficacious block | suppression of spontaneous pain behaviors ([2]; ZD7288 10 mg/kg i.p., 10 mg/kg): near complete suppression; also recorded: suppressed spontaneous pain | adverse behavioral effects [2]: No adverse behavioral effects

CCCCN1CCCCC1C(=O)Nc1c(C)cccc1C (centres unmarked) [bupivacaine]
anti-hyperalgesic activity [3]: does not possess any anti-hyperalgesic activity

NCC1(CC(=O)O)CCCCC1 [gabapentin]
suppression of CFA-induced tactile allodynia (CFA-injected rats; gabapentin 100 mg/kg i.p.): not

CC(C)Cc1ccc(C(C)C(=O)O)cc1 (centres unmarked) [ibuprofen]
suppression of CFA-induced tactile allodynia (CFA-injected rats; ibuprofen 30 mg/kg i.p.): suppressed | suppression of CFA-induced tactile allodynia (CFA-injected rats; ibuprofen 30 mg/kg i.p., listed as Ibuprofen): some efficacy

CCN(CC)CC(=O)Nc1c(C)cccc1C [lidocaine]
reversibility of block of Ih [4]: reversible | effect on ectopic firing in injured peripheral nerves [5]: stops the ectopic firing

CN1CC[C@]23c4c5ccc(O)c4O[C@H]2[C@@H](O)C=C[C@H]3[C@H]1C5 [morphine]
suppression of CFA-induced tactile allodynia (CFA-injected rats; morphine 3 mg/kg i.p.): suppressed | suppression of spontaneous pain behaviors ([2]; morphine 3 mg/kg i.p.): near complete suppression; also recorded: suppressed spontaneous pain | adverse behavioral effects [2]: No adverse behavioral effects
